# Experimental data taken from patent US11304949B2, “Treatment of hidradenitis suppurativa using JAK inhibitors” (Incyte Corporation, priority 2018, dated 2022).
# Key:
# [1] = target: human JAK1 (a.a. 837-1142) (Homo sapiens, UniProt P23458); assay: In vitro JAK kinase assay (HTRF), JAK1; type: biochemical; conditions: 1 mM ATP
# [2] = system: human JAK1 (a.a. 837-1142); assay: In vitro JAK kinase assay (HTRF), JAK1; type: biochemical; conditions: IC50 ratio at 1 mM ATP
# [3] = system: Transformed human keratinocyte (HaCaT) cells stimulated with TNFα and IFNγ; assay: JAK inhibitors in TNFα/IFNγ stimulated keratinocytes, gene expression (QuantiGene Plex); conditions: 24 hours, normalized to HPRT1, mean ± standard error
# [4] = system: Transformed human keratinocyte (HaCaT) cells stimulated with TNFα and IFNγ; assay: JAK inhibitors in TNFα/IFNγ stimulated keratinocytes, inflammatory mediators in media (ProCarta Multiplex Immunoassay); conditions: mean ± 1 standard error
# [5] = TNFα (25 ng/mL) and IFNγ (25 ng/mL), drug 25 nM
# [6] = TNFα (25 ng/mL) and IFNγ (25 ng/mL), drug 50 nM
# [7] = TNFα (25 ng/mL) and IFNγ (25 ng/mL), drug 100 nM
# [8] = TNFα (25 ng/mL) and IFNγ (25 ng/mL), drug 200 nM
# [9] = TNFα (25 ng/mL) and IFNγ (25 ng/mL) stimulation, drug 25 nM
# [10] = TNFα (25 ng/mL) and IFNγ (25 ng/mL) stimulation, drug 50 nM
# [11] = TNFα (25 ng/mL) and IFNγ (25 ng/mL) stimulation, drug 100 nM
# [12] = TNFα (25 ng/mL) and IFNγ (25 ng/mL) stimulation, drug 200 nM
smiles,measurement,setting,value
"N#CCC(C1CCN(c2cccc(Cl)n2)C1)n1cc(-c2ncnc3[nH]ccc23)cn1 (single isomer, unassigned) [Compound 6, 3-[1-(6-chloropyridin-2-yl)pyrrolidin-3-yl]-3-[4-(7H-pyrrolo[2,3-d]pyrimidin-4-yl)-1H-pyrazol-1-yl]propanenitrile]",IC50,[1],< 10 nM
same,JAK2/JAK1,[2],>10
"N#CCC1(n2cc(-c3ncnc4[nH]ccc34)cn2)CN(C2CCN(C(=O)Nc3ccc(F)cc3C(F)(F)F)CC2)C1 [Compound 2, 4-{3-(Cyanomethyl)-3-[4-(7H-pyrrolo[2,3-d]pyrimidin-4-yl)-1H-pyrazol-1-yl]azetidin-1-yl}-N-[4-fluoro-2-(trifluoromethyl)phenyl]piperidine-1-carboxamide]",IC50,[1],< 10 nM
same,JAK2/JAK1,[2],>10
"N#CCC1(n2cc(-c3ncnc4[nH]ccc34)cn2)CN(C2CCN(C(=O)c3ccnc(C(F)(F)F)n3)CC2)C1 [Compound 3, [3-[4-(7H-pyrrolo[2,3-d]pyrimidin-4-yl)-1H-pyrazol-1-yl]-1-(1-{[2-(trifluoromethyl)pyrimidin-4-yl]carbonyl}piperidin-4-yl)azetidin-3-yl]acetonitrile]",IC50,[1],< 10 nM
same,JAK2/JAK1,[2],>10
Cc1n[nH]c(C)c1-c1cnn(C2(CC#N)CN(c3cc(F)c(C(=O)N[C@@H](C)C(F)(F)F)cc3F)C2)c1 [Compound 4],IL-1α MFI,[3]; [5],1370.52 ± 35.28
same,IL-6 MFI,[3]; [5],135.32 ± 3.36
same,JAK1 MFI,[3]; [5],206.29 ± 6.84
same,JAK2 MFI,[3]; [5],114.94 ± 2.16
same,JAK3 MFI,[3]; [5],1.02 ± 0.19
same,STAT1 MFI,[3]; [5],3111.17 ± 182.20
same,STAT3 MFI,[3]; [5],1557.84 ± 58.15
same,STAT4 MFI,[3]; [5],5.65 ± 0.44
same,STAT5A MFI,[3]; [5],22.82 ± 1.77
same,STAT6 MFI,[3]; [5],1020.89 ± 23.57
same,TYK2 MFI,[3]; [5],283.97 ± 8.59
same,IL-1α MFI,[3]; [6],1308.7 ± 45.12
same,IL-6 MFI,[3]; [6],128.14 ± 6.83
same,JAK1 MFI,[3]; [6],194.2 ± 8.24
same,JAK2 MFI,[3]; [6],107.16 ± 2.86
same,JAK3 MFI,[3]; [6],0.99 ± 0.16
same,STAT1 MFI,[3]; [6],3058.64 ± 154.86
same,STAT3 MFI,[3]; [6],1519.61 ± 69.92
same,STAT4 MFI,[3]; [6],5.41 ± 0.33
same,STAT5A MFI,[3]; [6],20.71 ± 1.77
same,STAT6 MFI,[3]; [6],982.62 ± 14.34
same,TYK2 MFI,[3]; [6],273.68 ± 7.44
same,IL-1α MFI,[3]; [7],1194.29 ± 12.27
same,IL-6 MFI,[3]; [7],112.13 ± 3.37
same,JAK1 MFI,[3]; [7],193.28 ± 4.55
same,JAK2 MFI,[3]; [7],95.51 ± 3.13
same,JAK3 MFI,[3]; [7],0.99 ± 0.15
same,STAT1 MFI,[3]; [7],3035.33 ± 122.14
same,STAT3 MFI,[3]; [7],1457.24 ± 54.48
same,STAT4 MFI,[3]; [7],5.32 ± 0.46
same,STAT5A MFI,[3]; [7],18.44 ± 1.85
same,STAT6 MFI,[3]; [7],943.66 ± 25.99
same,TYK2 MFI,[3]; [7],266 ± 6.82
same,IL-1α MFI,[3]; [8],1151.31 ± 20.01
same,IL-6 MFI,[3]; [8],101.17 ± 2.91
same,JAK1 MFI,[3]; [8],182.86 ± 4.07
same,JAK2 MFI,[3]; [8],91.17 ± 2.15
same,JAK3 MFI,[3]; [8],0.85 ± 0.15
same,STAT1 MFI,[3]; [8],2984.14 ± 163.4
same,STAT3 MFI,[3]; [8],1483.1 ± 51.73
same,STAT4 MFI,[3]; [8],5.04 ± 0.36
same,STAT5A MFI,[3]; [8],17.64 ± 1.46
same,STAT6 MFI,[3]; [8],966.51 ± 12.3
same,TYK2 MFI,[3]; [8],263.49 ± 5.05
same,IL-1α MFI,"[3]; no stimulation, drug 200 nM",88.72 ± 5.90
same,IL-6 MFI,"[3]; no stimulation, drug 200 nM",4.98 ± 0.28
same,JAK1 MFI,"[3]; no stimulation, drug 200 nM",177.67 ± 11.84
same,JAK2 MFI,"[3]; no stimulation, drug 200 nM",25.25 ± 1.04
same,JAK3 MFI,"[3]; no stimulation, drug 200 nM",0.68 ± 0.17
same,STAT1 MFI,"[3]; no stimulation, drug 200 nM",554.39 ± 11.80
same,STAT3 MFI,"[3]; no stimulation, drug 200 nM",746.17 ± 16.73
same,STAT4 MFI,"[3]; no stimulation, drug 200 nM",4.28 ± 0.61
same,STAT5A MFI,"[3]; no stimulation, drug 200 nM",1.75 ± 0.44
same,STAT6 MFI,"[3]; no stimulation, drug 200 nM",762.04 ± 9.44
same,TYK2 MFI,"[3]; no stimulation, drug 200 nM",217.28 ± 14.28
same,IL-1α concentration in media,[4]; [9],7.74 ± 0.36 pg/mL
same,IL-6 concentration in media,[4]; [9],774.87 ± 31.09 pg/mL
same,IP-10/CXCL10 concentration in media,[4]; [9],3999.39 ± 370.53 pg/mL
same,MIP1α concentration in media,[4]; [9],101.71 ± 3.84 pg/mL
same,RANTES concentration in media,[4]; [9],216.88 ± 13.45 pg/mL
same,IL-1α concentration in media,[4]; [10],7.01 ± 0.39 pg/mL
same,IL-6 concentration in media,[4]; [10],710.89 ± 36.7 pg/mL
same,IP-10/CXCL10 concentration in media,[4]; [10],3665.2 ± 277.11 pg/mL
same,MIP1α concentration in media,[4]; [10],104.54 ± 6.56 pg/mL
same,RANTES concentration in media,[4]; [10],201.93 ± 15.44 pg/mL
same,IL-1α concentration in media,[4]; [11],7.27 ± 0.47 pg/mL
same,IL-6 concentration in media,[4]; [11],690.4 ± 35.25 pg/mL
same,IP-10/CXCL10 concentration in media,[4]; [11],3860.41 ± 323.05 pg/mL
same,MIP1α concentration in media,[4]; [11],96.4 ± 4.18 pg/mL
same,RANTES concentration in media,[4]; [11],207.79 ± 17.38 pg/mL
same,IL-1α concentration in media,[4]; [12],6.45 ± 0.38 pg/mL
same,IL-6 concentration in media,[4]; [12],621.79 ± 33.44 pg/mL
same,IP-10/CXCL10 concentration in media,[4]; [12],3835.78 ± 304.58 pg/mL
same,MIP1α concentration in media,[4]; [12],98.72 ± 3.87 pg/mL
same,RANTES concentration in media,[4]; [12],189.62 ± 13.78 pg/mL
same,IL-1α concentration in media,"[4]; no stimulation, drug 200 nM",0.30 ± 0.05 pg/mL
same,IL-6 concentration in media,"[4]; no stimulation, drug 200 nM",28.79 ± 2.91 pg/mL
same,IP-10/CXCL10 concentration in media,"[4]; no stimulation, drug 200 nM",20.23 ± 0.48 pg/mL
same,MIP1α concentration in media,"[4]; no stimulation, drug 200 nM",2.90 ± 0.21 pg/mL
same,RANTES concentration in media,"[4]; no stimulation, drug 200 nM",8.61 ± 0.52 pg/mL
"N#CCC(C1CCN(c2nc3cccnc3o2)C1)n1cc(-c2ncnc3[nH]ccc23)cn1 (stereo not shown) [Compound 7, 3-(1-[1,3]oxazolo[5,4-b]pyridin-2-ylpyrrolidin-3-yl)-3-[4-(7H-pyrrolo[2,3-d]pyrimidin-4-yl)-1H-pyrazol-1-yl]propanenitrile]",IC50,[1],< 10 nM
same,JAK2/JAK1,[2],>10
"N#CCC(CN1CCN(C(=O)c2ccc(C#N)cc2F)CC1)n1cc(-c2ncnc3[nH]ccc23)cn1 (stereo not shown) [Compound 8, 4-[(4-{3-cyano-2-[4-(7H-pyrrolo[2,3-d]pyrimidin-4-yl)-1H-pyrazol-1-yl]propyl}piperazin-1-yl)carbonyl]-3-fluorobenzonitrile]",IC50,[1],< 10 nM
same,JAK2/JAK1,[2],>10
"N#CCC(CN1CCN(C(=O)c2ccc(C#N)cc2F)CC1)n1ccc(-c2ncnc3[nH]ccc23)c1 (stereo not shown) [Compound 9, 4-[(4-{3-cyano-2-[3-(7H-pyrrolo[2,3-d]pyrimidin-4-yl)-1H-pyrrol-1-yl]propyl}piperazin-1-yl)carbonyl]-3-fluorobenzonitrile]",IC50,[1],< 10 nM
same,JAK2/JAK1,[2],>10
"N#CC[C@]1(n2cc(-c3ncnc4[nH]ccc34)cn2)C[C@H](N2CCN(C(=O)c3ccnc(C(F)(F)F)n3)CC2)C1 [Compound 10, [trans-1-[4-(7H-pyrrolo[2,3-d]pyrimidin-4-yl)-1H-pyrazol-1-yl]-3-(4-{[2-(trifluoromethyl)pyrimidin-4-yl]carbonyl}piperazin-1-yl)cyclobutyl]acetonitrile]",IC50,[1],< 10 nM
same,JAK2/JAK1,[2],>10
"N#CC[C@]1(n2cc(-c3ncnc4[nH]ccc34)cn2)C[C@H](N2CCC(Oc3cc(CN4CC(O)C4)cc(C(F)(F)F)n3)CC2)C1 [Compound 11, {trans-3-(4-{[4-[(3-hydroxyazetidin-1-yl)methyl]-6-(trifluoromethyl)pyridin-2-yl]oxy}piperidin-1-yl)-1-[4-(7H-pyrrolo[2,3-d]pyrimidin-4-yl)-1H-pyrazol-1-yl]cyclobutyl}acetonitrile]",IC50,[1],< 10 nM
same,JAK2/JAK1,[2],>10
"N#CC[C@]1(n2cc(-c3ncnc4[nH]ccc34)cn2)C[C@H](N2CCC(Oc3cc(CN4CCC[C@H]4CO)cc(C(F)(F)F)n3)CC2)C1 [Compound 12, {trans-3-(4-{[4-{[(2S)-2-(hydroxymethyl)pyrrolidin-1-yl]methyl}-6-(trifluoromethyl)pyridin-2-yl]oxy}piperidin-1-yl)-1-[4-(7H-pyrrolo[2,3-d]pyrimidin-4-yl)-1H-pyrazol-1-yl]cyclobutyl}acetonitrile]",IC50,[1],< 10 nM
same,JAK2/JAK1,[2],>10
"N#CC[C@]1(n2cc(-c3ncnc4[nH]ccc34)cn2)C[C@H](N2CCC(Oc3cc(CN4CCC[C@@H]4CO)cc(C(F)(F)F)n3)CC2)C1 [Compound 13, {trans-3-(4-{[4-{[(2R)-2-(hydroxymethyl)pyrrolidin-1-yl]methyl}-6-(trifluoromethyl)pyridin-2-yl]oxy}piperidin-1-yl)-1-[4-(7H-pyrrolo[2,3-d]pyrimidin-4-yl)-1H-pyrazol-1-yl]cyclobutyl}acetonitrile]",IC50,[1],< 10 nM
same,JAK2/JAK1,[2],>10
